Earlier results on 1 compound are cited in patent US20100196363A1, “CANCER TREATMENT COMBINATION THERAPY COMPRISING VINFLUNINE AND TRASTUZUMAB” (Pierre Fabre Medicament, priority 2007, published 2010).

The structures appear in SMILES notation.

This data set concerns breast cancer. The conditions noted are these: vinflunine alone, same dosage, regimen and period; breast cancer patients.

For the compound `CC[C@]12C=CCN3CC[C@@]4(c5cc([C@@]6(C(=O)OC)C[C@@H]7C[C@@H](C(C)(F)F)CN(Cc8c6[nH]c6ccccc86)C7)c(OC)cc5N(C)[C@H]4[C@@](O)(C(=O)OC)[C@@H]1OC(C)=O)[C@@H]32` [Vinflunine, 20′,20′difluoro-3′,4′-dihydrovinorelbine], the “Overall Response (RECIST)” value was “about 30%”.
